The subject of this experiment is LNCaP cells. Description: Cellular efflux assay. It is filed as cell-based, human. The protocol: Here, 12-well polylysine-coated Cellbind plates were seeded with 150 × 10^3 LNCaP cells with 1.75 mL of cell media. At 70–100% confluence (3 days of growth), the cell medium was changed and 37 kBq of ^64Cu-DOTHA2-PSMA in 1 mL of cell medium was added to each well of group 1 and 160 kBq to each of group 2.
For efflux assays, after adding ^64Cu-DOTHA2-PSMA, cells were incubated for 60 min for the time points 15 min to 4 h (group 1) and incubated for 4 h for the time points 4 h to 48 h (group 2). After incubation, the medium was removed, cells were washed with 1 mL of cold PBS, 1 mL of cell media was added and, similarly to uptake and internalization, cells were again incubated in nonradioactive media for 0, 15, 30, 45, 60 min, 2 h, 4 h (group 1) and 4 h, 8 h, 24 h, 32 h or 48 h (group 2) (3 wells per time point). After respective incubation times per well, the medium was removed, and cells were washed with 1 mL of cold PBS, then removed from the well with 1 mL of trypsin to measure the residual radioactivity by gamma counter. The results of residual activity were expressed as percentage of the 1 h (Group 1) or 4 h (Group 2) uptake activity (0 min of efflux time-point) as a function of time for 10^6 cells.
All the assays were performed at least 3 times, each with different ^64Cu-DOTHA2-PSMA production and cell passage. Cells were counted in 3 wells for each protocol (uptake, internalization, and efflux) on day 1 and day 3 of each experiment and an average for cells numbers at day 2.

Structures are written as SMILES.

For `CN([O-])C(=O)CN1CCN(CC(=O)NCC2CCC(C(=O)NC(Cc3ccc4ccccc4c3)C(=O)NCCCCC(NC(=O)NC(CCC(=O)O)C(=O)O)C(=O)O)CC2)CCN(CC(=O)N(C)[O-])CCN(CC(=O)N(C)O)CC1.[64Cu+2]` (centres unmarked) [^64Cu-DOTHA2-PSMA], the “Retained activity normalized to time 0” value by setting is: (1h incubation, efflux time 0.25 h) 100.93%; (1h incubation, efflux time 0.50 h) 105.51%; (1h incubation, efflux time 0.75 h) 94.38%; (1h incubation, efflux time 1 h) 77.52%; (1h incubation, efflux time 2 h) 80.95%; (1h incubation, efflux time 4 h) 64.04%. The “Retained activity normalized to time 0” value (4h incubation, efflux time 4 h) turned out to be 66.23%; the “Retained activity normalized to time 0” value (4h incubation, efflux time 8 h) is recorded as 51.88%; the “Retained activity normalized to time 0” value (4h incubation, efflux time 24 h) is listed as 35.10%; the “Retained activity normalized to time 0” value (4h incubation, efflux time 32 h) came to 34.27%; the “Retained activity normalized to time 0” value (4h incubation, efflux time 48 h) came to 48.61%.

Source of the values: PMC9412875, “^64Cu-DOTHA2-PSMA, a Novel PSMA PET Radiotracer for Prostate Cancer with a Long Imaging Time Window” (Pharmaceuticals, 2022).
